Test results from patent US20060074049A1, “Use of heparinoids for treatment and prevention of dementia” (priority 2004, published 2006).

Experiments:
p21 and p27 = p21 and p27 expression in NPC by immunohistochemistry; format: cell-based, human
Description: For p21 and p27 detection, NPC were grown with recombinant coat proteins for 24 hours. Cells were fixed and monoclonal antibodies to p21 or p27 (Pharmingen) were added. A secondary antibody conjugated to Cy3 was used for detection.
NCP were incubated with 800 pM recombinant coat proteins, and expression of p21 and p27 was analyzed using immunohistochemistry.

ERK = ERK phosphorylation in NPC by flow cytometry; format: cell-based, human
Description: Signaling: Isolated NPC were incubated with coat proteins for 10 minutes, placed on ice, fixed, permeabilized with saponin, and stained with fluorescein isothiocyanate-(FITC-) conjugated phosphospecific monoclonal antibodies to ERK (Santa Cruz Biotechnology, Santa Cruz, Calif.). Cells were then analyzed by flow cytometry. Activity of PP2A was inhibited by incubation with okadaic acid (Calbiochem, San Diego, Calif.) at 2.5 μM for 1 hour prior to the addition of coat proteins. Experiments were performed at least twice, and determinations were performed in triplicate.
Proliferation of NPC is increased by signals that increase ERK phosphorylation (Learish et al. (2000) Develop. Brain Res. 122:97-109). […] NPC were incubated with a panel of HIV coat proteins and assayed to determine the fraction of cells with phosphorylated ERK. The CM235 and IIIb coat proteins inhibited ERK phosphorylation by 34% and 77% respectively (p<0.05 for both; FIGS. 2A and 2B). […] Thus, HIV coat proteins are able to activate a cellular phosphatase by signaling through chemokine receptors and reduce ERK phosphorylation, leading to reduced NPC proliferation.

human NPC [1] = assay: BrdU incorporation into NPC neurospheres by flow cytometry; format: cell-based
From the text: FIG. 1 is a graph showing the number of NPC colonies displaying outgrowth of cells with neuronal morphology after treatment with coat proteins from the HIV strains 93TH975, CM235 and IIIb. The mean+/−standard error is shown. PTX=pertussis toxin, Anti V3=monoclonal antibody to the V3 loop region of gp120. FIG. 1B is a series of graphs showing the level of bromodeoxyuridine (BrdU) incorporation into NPC neurospheres treated with coat proteins from the HIV strains 93TH975, CM235 and IIIb. Shaded area=control cells, solid line=treated cells.
To quantitate the ability of the coat proteins to cause cells to become quiescent, the number of attached, differentiated colonies was counted. […] In contrast, the 93TH975 coat protein had no effect. In order to confirm that cell proliferation was indeed inhibited by the coat proteins, cultures of NPC were labeled with BrdU, and BrdU incorporation was measured by flow cytometry.

[2] = test system: NPC in human hippocampal slices; assay: Hippocampal slice cultures, BrdU positive NPC; format: cell-based; conditions: coat protein 1 nM; p<0.001
Description: Hippocampal slice cultures: Discarded hippocampal tissue was obtained from patients undergoing corrective surgery for seizures as previously described (Roy et al. (2000) Nat. Med. 6:271-277; and Pincus et al. (1998) Neurosurg. 42:858-868). Tissue was obtained within 1 hour of removal and cultured as described (Stoppini et al. (1991) J. Neurosci, Meth. 37:173-182). Briefly, tissue was sliced to 200 μm thickness using a Brendel-Vitron tissue slicer (Vitron, Inc., Tucson, Ariz.). Slices were placed in a Transwell insert (Costar, Corning, N.Y.) and cultured in neural progenitor maintenance medium (NPMM) with or without chemokines (500 ng/ml), HIV coat proteins (1 nM) or CSF (2%) added on day 0. Each sample was tested in triplicate. The entire experiment was performed at least twice with identical results. Slices were labeled with BrdU on day 5 of culture, and harvested for immunohistochemistry on day 7 by freezing slices in OCT. Five-micron sections were made, and BrdU incorporation was detected using a BrdU in situ kit (Pharmingen, San Diego, Calif.). For dual staining of BrdU and Musashil, a polyclonal antibody to Musashil (Chemicon International, Temecula, Calif.) was used at a dilution of 1:10. Apoptotic cells were detected using a TUNEL assay (Oncogene, Boston, Mass.). […]

human NPC [3] = assay: Plating assay: NPC colony formation / quiescence; format: cell-based
Description: Cells and Materials: Normal human NPC were obtained from Clonetics Corp (San Diego, Calif.), and grown in neural progenitor maintenance medium (Clonetics) with human recombinant basic fibroblast growth factor, epidermal growth factor, neural survival factors and antibiotics. These cells were derived as described previously (Svendsen (1998) J. Neurosci. Meth. 85:141-152).
Plating Assay: On day 0, HIV coat proteins at a concentration of 800 pM, or CSF at a concentration of 2% was added to cultures of NPC. Each protein or CSF sample was tested in triplicate. Cultures were incubated for seven days, and then cells were plated onto 24 well polyethylene-imine coated plates. The number of cell colonies having more than 20 cells with typical neuronal morphology was counted for each well after 7 days in culture. Determinations of colony inhibition for all proteins and CSF samples were done on each of three different lots of NPC. Each lot was passaged 1-3 times before testing, with no differences seen between this number of passages.
The ability of HIV coat proteins to induce quiescence in human NPC was tested using NPC in the form of neurospheres. Typically, neurospheres with quiescent cells fail to attach and differentiate, while neurospheres containing proliferating cells will attach and differentiate into neurons and astrocytes. To determine whether only those coat proteins that signal through either the CXCR4 receptor or the […] receptor would induce quiescence of NPC, purified recombinant coat proteins from several different strains of HIV were tested. These included the R5 strain CM235, the X4 strain IIIb, and the clade E/A recombinant R5 strain 93TH975 (Gao et al. (1996) J. Virol. 70:1651-1667). […] The number of colonies containing more than 20 cells with typical neuronal morphology was counted after 7 days in culture. […] None of the coat proteins induced cell death in NPC, as determined by trypan blue staining (>95% viability in all coat-protein treated cultures). […]

human neurospheres (NPC) = assay: Block of IIIb coat protein effect on NPC proliferation by recombinant apolipoproteins; format: cell-based; conditions: 20 nM recombinant apolipoprotein
Description: FIG. 6 is a graph showing the number of BrdU labeled NPC in samples treated with recombinant HIV gp120 from the IIIb strain, which was pre-incubated with or without recombinant ApoE3 and ApoE4.
A risk factor for the development of HIV dementia is homozygosity for the apolipoprotein E4 genotype (Corder et al. (1998) Nat. Med. 4:1182-1184). In Herpes simplex virus infection, it has been speculated that apo E proteins compete with HSV for binding to HS, and that apo E4 cannot compete as efficiently as apo E3 (Itzhaki et al. (1998) Nat. Med. 4:1344). To determine whether apolipoproteins might compete with HIV coat proteins for binding to cell surface HS on NPC, human neurospheres were incubated with the IIIb coat protein, and the ability of recombinant apolipoproteins to block the inhibitory effect of the coat protein on NPC proliferation was tested. […] Thus, apolipoproteins compete with HIV coat proteins for cell surface binding.

Compound: c1cc(CN2CCCNCCNCCCNCC2)ccc1CN1CCCNCCNCCCNCC1 [AMD3100, reference compound]
- effect on induction of p21 and p27 by the IIIb coat protein (p21 and p27; with IIIb coat protein): blocked

Compound: C=C1[C@@H](O)[C@@H]2O[C@]3(CC[C@H](/C=C/[C@@H](C)[C@@H]4CC(C)=C[C@@]5(O[C@H](C[C@@](C)(O)C(=O)O)CC[C@H]5O)O4)O3)CC[C@H]2O[C@@H]1[C@@H](O)C[C@H](C)[C@H]1O[C@@]2(CCCCO2)CC[C@H]1C [okadaic acid, reference compound]
- effect on inhibition of ERK phosphorylation induced by CM235 and IIIb coat proteins (ERK; 2.5 μM for 1 hour prior to coat proteins): blocked the inhibition of ERK phosphorylation

Compound: IIIb: purified recombinant HIV coat protein (gp120) of the X4 strain IIIb
- BrdU incorporation into NPC, tested 7 days after addition of coat proteins (human NPC [1]; 7 days after addition): incorporation similar to controls
- BrdU incorporation into NPC compared with controls (human NPC [1]; coat protein treated NPC): less BrdU incorporation
- reduction in fraction of NPC with phosphorylated ERK (ERK; NPC incubated with coat protein 10 minutes, p<0.05 for CM235 and IIIb, 93TH975 non-significant): 77%
- expression of p21 and p27 in NPC (p21 and p27; 800 pM recombinant coat protein): induced expression of p21 and p27
- reduction of proliferation of NPC (BrdU positive cells) in hippocampal slices [2]: 70%
- induction of quiescence / effect on attached differentiated NPC colonies (in words) (human NPC [3]; coat protein 800 pM for 7 days): caused NPC to enter a quiescent state
- reduction of the number of differentiated NPC colonies (human NPC [3]; coat protein 800 pM for 7 days, colonies counted after 7 days on coated plates, p<0.001): 74%

Compound: apo E3: recombinant apolipoprotein E3
- block of IIIb coat protein inhibition of NPC proliferation (human neurospheres (NPC)): prevented the IIIb coat protein from inhibiting NPC proliferation

Compound: apo E4: recombinant apolipoprotein E4
- block of IIIb coat protein inhibition of NPC proliferation (human neurospheres (NPC)): did not

Compound: pertussis toxin [reference compound]
- effect on the inhibitory effects of CM235 and IIIb coat proteins on NPC (human NPC [3]; added to NPC cultures in addition to coat proteins): eliminated
